Source: ChEMBL document CHEMBL1152632, “Synthesis and evaluation of functionalized isoindigos as antiproliferative agents” (Bioorg Med Chem, 2009)
Calls of active or inactive are those of the source. The calls are words filed in the database; no cut-off is given here.

Legend:
[1] = Antiproliferative activity against human IMR90 cells after 72 hrs by MTT assay; format: cell-based; details: IMR-90, 72 h
Huh-7 = assay: Antiproliferative activity against human HuH7 cells after 72 hrs by MTT assay; format: functional, cell-based; details: Huh-7, 72 h
[2] = target: Cyclin-dependent kinase 2/cyclin A (Homo sapiens) (UniProt P24941+P20248+P78396); assay: Inhibition of CDK2/cyclin A at 10 uM by IMAP assay; format: protein-complex assay
HL-60 = assay: Antiproliferative activity against human HL60 cells after 5 days by MTT assay; format: functional, cell-based; details: HL-60, 120 h
HCT-116 = assay: cells; details: Homo sapiens, HCT-116, 72 h
Description: Antiproliferative activity against human HCT116 cells after 72 hrs by MTT assay

K562 = assay: cells; details: Homo sapiens, K562, 72 h
Description: Antiproliferative activity against human K562 cells after 72 hrs by MTT assay

[3] = target: Macrophage colony-stimulating factor 1 receptor (Homo sapiens) (UniProt P07333); assay: Inhibition of CSF1R at 10 uM
Chain of Macrophage colony-stimulating factor 1 receptor (Homo sapiens) (P07333 whole entry): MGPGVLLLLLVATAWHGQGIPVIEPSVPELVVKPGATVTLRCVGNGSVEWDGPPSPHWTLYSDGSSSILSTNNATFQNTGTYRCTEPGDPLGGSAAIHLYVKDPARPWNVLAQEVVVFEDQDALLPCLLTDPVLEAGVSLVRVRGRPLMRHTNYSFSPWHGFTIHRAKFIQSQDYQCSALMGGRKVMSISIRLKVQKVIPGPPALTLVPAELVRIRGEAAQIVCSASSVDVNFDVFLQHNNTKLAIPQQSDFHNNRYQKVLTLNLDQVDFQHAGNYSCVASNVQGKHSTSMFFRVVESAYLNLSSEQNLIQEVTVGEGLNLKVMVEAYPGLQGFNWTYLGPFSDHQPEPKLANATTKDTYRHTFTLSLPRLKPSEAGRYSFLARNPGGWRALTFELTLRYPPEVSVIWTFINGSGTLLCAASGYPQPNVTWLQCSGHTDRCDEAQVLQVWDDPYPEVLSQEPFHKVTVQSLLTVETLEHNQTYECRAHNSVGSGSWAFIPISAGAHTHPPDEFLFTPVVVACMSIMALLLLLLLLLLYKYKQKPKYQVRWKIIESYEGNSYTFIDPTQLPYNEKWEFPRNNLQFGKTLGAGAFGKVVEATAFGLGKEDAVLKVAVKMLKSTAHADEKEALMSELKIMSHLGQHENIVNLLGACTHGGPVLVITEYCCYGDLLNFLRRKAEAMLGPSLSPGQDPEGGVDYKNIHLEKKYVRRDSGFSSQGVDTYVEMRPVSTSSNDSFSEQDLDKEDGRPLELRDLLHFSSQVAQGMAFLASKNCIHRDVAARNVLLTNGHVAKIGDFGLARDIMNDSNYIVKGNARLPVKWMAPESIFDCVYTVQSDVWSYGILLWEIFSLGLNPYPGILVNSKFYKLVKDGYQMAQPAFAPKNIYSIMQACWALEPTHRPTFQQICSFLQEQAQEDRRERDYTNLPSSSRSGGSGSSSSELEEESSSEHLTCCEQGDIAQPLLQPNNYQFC

[4] = target: Serine/threonine-protein kinase B-raf (Homo sapiens) (UniProt P15056); assay: Inhibition of BRAF at 10 uM
[5] = target: Mitogen-activated protein kinase 14 (Homo sapiens) (UniProt Q16539); assay: Inhibition of p38alpha at 10 uM
[6] = target: Dual specificity mitogen-activated protein kinase kinase 2 (Homo sapiens) (UniProt P36507); assay: Inhibition of MEK2 at 10 uM
Chain of Dual specificity mitogen-activated protein kinase kinase 2 (Homo sapiens) (P36507 whole entry): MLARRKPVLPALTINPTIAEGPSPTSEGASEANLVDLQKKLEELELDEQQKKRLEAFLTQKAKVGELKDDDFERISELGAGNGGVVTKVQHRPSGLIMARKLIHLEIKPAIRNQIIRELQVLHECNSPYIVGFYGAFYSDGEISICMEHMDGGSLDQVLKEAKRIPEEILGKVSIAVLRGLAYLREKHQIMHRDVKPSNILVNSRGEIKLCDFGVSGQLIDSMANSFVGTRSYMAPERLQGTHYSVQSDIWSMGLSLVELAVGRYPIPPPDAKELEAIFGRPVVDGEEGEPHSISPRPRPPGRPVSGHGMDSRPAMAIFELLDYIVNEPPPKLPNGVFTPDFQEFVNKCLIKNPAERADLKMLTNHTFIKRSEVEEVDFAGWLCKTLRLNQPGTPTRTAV

[7] = target: Receptor-type tyrosine-protein kinase FLT3 (Homo sapiens) (UniProt P36888); assay: Inhibition of FLT3 at 10 uM
[8] = target: RAF proto-oncogene serine/threonine-protein kinase (Homo sapiens) (UniProt P04049); assay: Inhibition of RAF1 at 10 uM
[9] = target: Mitogen-activated protein kinase 11 (Homo sapiens) (UniProt Q15759); assay: Inhibition of p38beta at 10 uM
[10] = target: Dual specificity mitogen-activated protein kinase kinase 1 (Homo sapiens) (UniProt Q02750); assay: Inhibition of MEK1 at 10 uM
[11] = target: Insulin-like growth factor 1 receptor (Homo sapiens) (UniProt P08069); assay: Inhibition of IGF1R at 10 uM
[12] = target: Serine/threonine-protein kinase Chk1 (Homo sapiens) (UniProt O14757); assay: Inhibition of CHEK1 at 10 uM
[13] = target: Insulin receptor (Homo sapiens) (UniProt P06213); assay: Inhibition of INSR at 10 uM
[14] = target: Fibroblast growth factor receptor 2 (Homo sapiens) (UniProt P21802); assay: Inhibition of FGFR2 at 10 uM
[15] = target: Proto-oncogene tyrosine-protein kinase Src (Homo sapiens) (UniProt P12931); assay: Inhibition of SRC at 10 uM
[16] = target: Mast/stem cell growth factor receptor Kit (Homo sapiens) (UniProt P10721); assay: Inhibition of KIT at 10 uM
[17] = target: SRSF protein kinase 3 (Homo sapiens) (UniProt Q9UPE1); assay: Inhibition of SRPK3 at 10 uM
[18] = target: Phosphatidylinositol 4,5-bisphosphate 3-kinase catalytic subunit gamma isoform (Homo sapiens) (UniProt P48736); assay: Inhibition of PIK3CG at 10 uM
[19] = target: Platelet-derived growth factor receptor alpha (Homo sapiens) (UniProt P16234); assay: Inhibition of PDGFRA at 10 uM
[20] = target: TGF-beta receptor type-1 (Homo sapiens) (UniProt P36897); assay: Inhibition of TGFBR1 at 10 uM
[21] = target: Cyclin-dependent kinase 7 (Homo sapiens) (UniProt P50613); assay: Inhibition of CDK7 at 10 uM
Chain of Cyclin-dependent kinase 7 (Homo sapiens) (P50613 whole entry): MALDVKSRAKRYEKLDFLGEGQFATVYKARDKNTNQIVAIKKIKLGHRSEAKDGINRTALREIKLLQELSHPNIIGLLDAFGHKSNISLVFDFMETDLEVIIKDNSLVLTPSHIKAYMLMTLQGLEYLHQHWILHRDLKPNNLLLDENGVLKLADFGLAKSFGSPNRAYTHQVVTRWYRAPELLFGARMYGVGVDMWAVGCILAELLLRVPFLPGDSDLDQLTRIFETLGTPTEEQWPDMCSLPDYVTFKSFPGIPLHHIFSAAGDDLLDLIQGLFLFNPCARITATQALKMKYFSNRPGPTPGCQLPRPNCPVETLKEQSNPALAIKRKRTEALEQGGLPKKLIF

[22] = target: Serine/threonine-protein kinase pim-3 (Homo sapiens) (UniProt Q86V86); assay: Inhibition of PIM3 at 10 uM
[23] = target: Receptor tyrosine-protein kinase erbB-2 (Homo sapiens) (UniProt P04626); assay: Inhibition of ERBB2 at 10 uM
[24] = target: ALK tyrosine kinase receptor (Homo sapiens) (UniProt Q9UM73); assay: Inhibition of ALK at 10 uM
[25] = target: Mitogen-activated protein kinase 3 (Homo sapiens) (UniProt P27361); assay: Inhibition of ERK1 at 10 uM
[26] = target: Non-receptor tyrosine-protein kinase TYK2 (Homo sapiens) (UniProt P29597); assay: Inhibition of TYK2 at 10 uM
[27] = target: Serine/threonine-protein kinase pim-1 (Homo sapiens) (UniProt P11309); assay: Inhibition of PIM1 at 10 uM
[28] = target: Tyrosine-protein kinase BTK (Homo sapiens) (UniProt Q06187); assay: Inhibition of BTK at 10 uM
[29] = target: Serine/threonine-protein kinase PLK4 (Homo sapiens) (UniProt O00444); assay: Inhibition of PLK4 at 10 uM
[30] = target: Tyrosine-protein kinase ABL1 (Homo sapiens) (UniProt P00519); assay: Inhibition of ABL1 at 10 uM
Chain of Tyrosine-protein kinase ABL1 (Homo sapiens) (P00519 whole entry): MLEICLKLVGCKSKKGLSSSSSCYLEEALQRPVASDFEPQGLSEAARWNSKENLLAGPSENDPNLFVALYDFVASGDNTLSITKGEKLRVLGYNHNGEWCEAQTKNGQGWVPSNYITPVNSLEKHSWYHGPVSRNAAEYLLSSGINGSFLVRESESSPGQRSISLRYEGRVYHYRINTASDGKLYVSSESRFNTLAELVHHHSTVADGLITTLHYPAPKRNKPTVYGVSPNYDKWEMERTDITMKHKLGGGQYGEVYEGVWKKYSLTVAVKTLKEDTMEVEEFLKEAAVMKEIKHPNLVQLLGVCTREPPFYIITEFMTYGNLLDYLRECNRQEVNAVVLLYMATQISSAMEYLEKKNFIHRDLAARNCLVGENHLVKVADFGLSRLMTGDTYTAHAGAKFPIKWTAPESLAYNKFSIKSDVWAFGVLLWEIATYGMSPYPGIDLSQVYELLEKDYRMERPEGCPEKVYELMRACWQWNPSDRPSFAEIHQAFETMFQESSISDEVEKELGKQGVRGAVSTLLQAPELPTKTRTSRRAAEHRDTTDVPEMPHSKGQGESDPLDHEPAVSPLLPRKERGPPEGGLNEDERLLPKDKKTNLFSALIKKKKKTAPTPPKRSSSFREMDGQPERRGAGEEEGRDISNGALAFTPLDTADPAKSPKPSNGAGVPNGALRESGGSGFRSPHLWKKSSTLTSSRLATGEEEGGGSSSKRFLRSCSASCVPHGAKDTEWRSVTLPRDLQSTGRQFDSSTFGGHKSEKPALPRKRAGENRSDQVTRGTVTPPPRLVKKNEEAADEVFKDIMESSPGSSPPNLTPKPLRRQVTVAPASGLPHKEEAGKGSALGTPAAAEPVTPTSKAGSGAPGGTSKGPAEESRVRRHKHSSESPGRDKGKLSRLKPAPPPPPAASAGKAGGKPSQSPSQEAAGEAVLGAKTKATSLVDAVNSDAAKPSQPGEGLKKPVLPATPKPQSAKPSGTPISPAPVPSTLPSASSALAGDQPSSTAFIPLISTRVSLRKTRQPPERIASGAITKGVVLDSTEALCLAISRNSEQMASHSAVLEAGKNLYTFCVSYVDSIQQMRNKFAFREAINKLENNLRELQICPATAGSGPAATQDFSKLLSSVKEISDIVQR

[31] = target: Cyclin-dependent kinase 9 (Homo sapiens) (UniProt P50750); assay: Inhibition of CDK9 at 10 uM
Chain of Cyclin-dependent kinase 9 (Homo sapiens) (P50750 whole entry): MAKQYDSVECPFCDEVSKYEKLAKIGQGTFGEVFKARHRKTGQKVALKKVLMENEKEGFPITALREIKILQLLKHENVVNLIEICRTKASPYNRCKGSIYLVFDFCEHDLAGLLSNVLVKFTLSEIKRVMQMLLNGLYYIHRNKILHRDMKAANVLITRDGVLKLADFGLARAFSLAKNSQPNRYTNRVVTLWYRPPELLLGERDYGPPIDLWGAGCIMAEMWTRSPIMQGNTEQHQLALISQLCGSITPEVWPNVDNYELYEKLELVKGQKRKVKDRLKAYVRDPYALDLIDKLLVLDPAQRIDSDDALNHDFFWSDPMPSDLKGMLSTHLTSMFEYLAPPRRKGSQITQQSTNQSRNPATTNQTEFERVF

[32] = target: Platelet-derived growth factor receptor beta (Homo sapiens) (UniProt P09619); assay: Inhibition of PDGFRB at 10 uM
[33] = target: Angiopoietin-1 receptor (Homo sapiens) (UniProt Q02763); assay: Inhibition of TIE2 at 10 uM
Chain of Angiopoietin-1 receptor (Homo sapiens) (Q02763 whole entry): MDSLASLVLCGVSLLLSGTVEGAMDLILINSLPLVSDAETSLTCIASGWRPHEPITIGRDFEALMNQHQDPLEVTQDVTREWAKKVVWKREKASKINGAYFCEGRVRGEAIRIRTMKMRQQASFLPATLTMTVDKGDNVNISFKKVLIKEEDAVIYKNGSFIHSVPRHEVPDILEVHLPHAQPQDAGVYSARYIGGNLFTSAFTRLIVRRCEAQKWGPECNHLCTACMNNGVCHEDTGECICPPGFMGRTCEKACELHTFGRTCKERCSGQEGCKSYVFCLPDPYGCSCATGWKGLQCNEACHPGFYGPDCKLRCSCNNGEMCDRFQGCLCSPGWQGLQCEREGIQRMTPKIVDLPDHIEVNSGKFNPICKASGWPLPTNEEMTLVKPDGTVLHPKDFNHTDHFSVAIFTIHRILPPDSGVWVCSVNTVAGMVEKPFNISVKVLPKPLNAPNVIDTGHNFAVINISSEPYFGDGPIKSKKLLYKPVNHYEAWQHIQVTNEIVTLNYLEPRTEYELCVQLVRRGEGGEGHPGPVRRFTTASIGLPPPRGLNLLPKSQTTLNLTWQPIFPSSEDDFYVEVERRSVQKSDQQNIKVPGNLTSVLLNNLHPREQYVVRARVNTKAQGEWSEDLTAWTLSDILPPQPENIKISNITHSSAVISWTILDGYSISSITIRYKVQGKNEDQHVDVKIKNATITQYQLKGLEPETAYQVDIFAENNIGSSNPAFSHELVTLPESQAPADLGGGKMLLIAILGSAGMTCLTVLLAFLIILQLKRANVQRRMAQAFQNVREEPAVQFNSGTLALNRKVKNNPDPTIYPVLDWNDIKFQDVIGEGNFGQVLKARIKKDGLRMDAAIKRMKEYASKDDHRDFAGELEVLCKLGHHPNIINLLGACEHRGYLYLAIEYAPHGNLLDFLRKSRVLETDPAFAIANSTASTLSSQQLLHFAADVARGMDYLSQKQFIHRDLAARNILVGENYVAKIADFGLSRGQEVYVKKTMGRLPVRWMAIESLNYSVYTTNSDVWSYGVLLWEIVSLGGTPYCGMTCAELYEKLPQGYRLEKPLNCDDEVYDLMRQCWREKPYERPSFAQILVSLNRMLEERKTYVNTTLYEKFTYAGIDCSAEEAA

[34] = target: Glycogen synthase kinase-3 beta (Homo sapiens) (UniProt P49841); assay: Inhibition of GSK3-beta at 10 uM
[35] = target: Hepatocyte growth factor receptor (Homo sapiens) (UniProt P08581); assay: Inhibition of MET at 10 uM
[36] = target: Serine/threonine-protein kinase pim-2 (Homo sapiens) (UniProt Q9P1W9); assay: Inhibition of PIM2 at 10 uM
[37] = target: Dual specificity tyrosine-phosphorylation-regulated kinase 1B (Homo sapiens) (UniProt Q9Y463); assay: Inhibition of DYRK1B at 10 uM
[38] = target: Atypical kinase COQ8A, mitochondrial (Homo sapiens) (UniProt Q8NI60); assay: Inhibition of ADCK3 at 10 uM
[39] = target: Tyrosine-protein kinase JAK2 (Homo sapiens) (UniProt O60674); assay: Inhibition of JAK2 at 10 uM
[40] = target: Cyclin-dependent kinase 3 (Homo sapiens) (UniProt Q00526); assay: Inhibition of CDK3 at 10 uM
Chain of Cyclin-dependent kinase 3 (Homo sapiens) (Q00526 whole entry, looked up): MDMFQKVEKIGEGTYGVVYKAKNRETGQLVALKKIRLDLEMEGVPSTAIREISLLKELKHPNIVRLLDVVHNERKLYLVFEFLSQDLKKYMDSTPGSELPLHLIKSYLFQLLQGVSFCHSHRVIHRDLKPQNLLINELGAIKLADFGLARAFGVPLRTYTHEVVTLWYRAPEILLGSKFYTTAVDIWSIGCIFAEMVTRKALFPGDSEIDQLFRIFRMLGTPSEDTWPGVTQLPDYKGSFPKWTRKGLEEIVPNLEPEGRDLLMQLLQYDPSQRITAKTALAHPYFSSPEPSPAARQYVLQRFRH

[41] = target: Fibroblast growth factor receptor 3 (Homo sapiens) (UniProt P22607); assay: Inhibition of FGFR3 at 10 uM
[42] = target: cAMP-dependent protein kinase catalytic subunit alpha (Homo sapiens) (UniProt P17612); assay: Inhibition of PKACalpha at 10 uM
[43] = target: Cyclin-dependent kinase 2 (Homo sapiens) (UniProt P24941); assay: Inhibition of CDK2 at 10 uM
[44] = target: Epidermal growth factor receptor (Homo sapiens) (UniProt P00533); assay: Inhibition of EGFR at 10 uM
[45] = target: Receptor tyrosine-protein kinase erbB-4 (Homo sapiens) (UniProt Q15303); assay: Inhibition of ERBB4 at 10 uM
[46] = target: Casein kinase I isoform gamma-2 (Homo sapiens) (UniProt P78368); assay: Inhibition of CSNK1G2 at 10 uM

O=C1Nc2ccccc2/C1=C1\C(=O)N(CCc2ccc([N+](=O)[O-])cc2)c2ccccc21
IC50 [1]: 7.5 µM | IC50 (Huh-7): 13.3 µM | inhibition [2]: inactive | IC50 (HL-60): > 30 µM | IC50 (HCT-116): > 30 µM | IC50 (K562): > 30 µM

O=C1Nc2ccccc2/C1=C1\C(=O)N(CCc2ccccc2)c2ccccc21
IC50 [1]: 6.8 µM | IC50 (Huh-7): 12 µM | inhibition [2]: inactive | IC50 (HL-60): 11.9 µM | IC50 (HCT-116): 12.2 µM | IC50 (K562): 7.3 µM

Cc1ccc(CCN2C(=O)/C(=C3/C(=O)Nc4ccccc43)c3ccccc32)cc1
IC50 [1]: > 30 µM | IC50 (Huh-7): 19 µM | inhibition [2]: inactive | IC50 (HL-60): > 30 µM | IC50 (HCT-116): > 30 µM | IC50 (K562): > 30 µM

O=C1Nc2ccccc2/C1=C1\C(=O)N(CCc2ccc(O)cc2)c2ccccc21
IC50 [1]: > 30 µM | IC50 (Huh-7): 19.9 µM | inhibition [2]: inactive | IC50 (HL-60): > 30 µM | IC50 (HCT-116): > 30 µM | IC50 (K562): > 30 µM

CN1C(=O)/C(=C2/C(=O)Nc3ccccc32)c2ccccc21 [MEISOINDIGO]
inhibition [3]: 0% | inhibition [4]: 0% | inhibition [5]: 0% | inhibition [6]: 0% | inhibition [7]: 0% | inhibition [8]: 0% | inhibition [9]: 0% | inhibition [10]: 16% | inhibition [11]: 13% | inhibition [12]: 0% | inhibition [13]: 10% | inhibition [14]: 0% | inhibition [15]: 15% | inhibition [16]: 8% | inhibition [17]: 0% | inhibition [18]: 0% | IC50 [1]: 7.7 µM | IC50 (Huh-7): 18.3 µM | inhibition [19]: 0% | inhibition [20]: 0% | inhibition [21]: 56% | inhibition [22]: 7% | inhibition [23]: 0% | inhibition [24]: 0% | inhibition [25]: 0% | inhibition [26]: 8% | inhibition [27]: 3% | inhibition [28]: 0% | inhibition [29]: 12% | inhibition [30]: 11% | inhibition [31]: 0% | inhibition [32]: 15% | inhibition [33]: 6% | inhibition [34]: 16% | inhibition [35]: 0% | inhibition [36]: 2% | inhibition [37]: 0% | inhibition [38]: 0% | inhibition [39]: 4% | inhibition [2]: inactive | inhibition [40]: 0% | IC50 (HL-60): 12.2 µM | inhibition [41]: 4% | inhibition [42]: 0% | inhibition [43]: 4% | IC50 (HCT-116): 15.4 µM | inhibition [44]: 16% | inhibition [45]: 0% | inhibition [46]: 0% | IC50 (K562): 6.7 µM

O=Nc1c(-c2c(O)[nH]c3ccccc23)[nH]c2ccccc12 [INDIRUBIN-3-MONOXIME]
IC50 [1]: 18.2 µM | inhibition [2]: 70% | IC50 (HL-60): 15.7 µM | IC50 (HCT-116): 12 µM | IC50 (K562): > 30 µM

O=C1Nc2ccccc2/C1=C1\C(=O)N(c2ccccc2)c2ccccc21
inhibition [2]: inactive

O=C1Nc2ccccc2C1C1C(=O)Nc2ccccc21 (configuration not stated)
inhibition [2]: inactive

COc1ccc(CCN2C(=O)/C(=C3/C(=O)Nc4ccccc43)c3ccccc32)cc1
IC50 [1]: 5.4 µM | IC50 (Huh-7): 7.5 µM | inhibition [2]: inactive | IC50 (HL-60): 12 µM | IC50 (HCT-116): 11.6 µM | IC50 (K562): 1.4 µM

O=C1Nc2cc(Br)ccc2/C1=C1/Nc2ccccc2/C1=N\O
inhibition [2]: 70%

CC(=O)Nc1ccc(CCN2C(=O)/C(=C3/C(=O)Nc4ccccc43)c3ccccc32)cc1
IC50 [1]: 19.5 µM | IC50 (Huh-7): 13.3 µM | inhibition [2]: inactive | IC50 (HL-60): > 30 µM | IC50 (HCT-116): > 30 µM | IC50 (K562): > 30 µM

O=C1Nc2ccccc2/C1=C1\C(=O)N(Cc2ccccc2)c2ccccc21
inhibition [2]: inactive

CN1C(=O)/C(=C2/C(=O)N(C)c3ccccc32)c2ccccc21
inhibition [2]: inactive

O=C1Nc2ccccc2/C1=C1\C(=O)N(CCCc2ccccc2)c2ccccc21
inhibition [3]: 11% | inhibition [4]: 0% | inhibition [5]: 4% | inhibition [6]: 9% | inhibition [7]: 0% | inhibition [8]: 9% | inhibition [9]: 32% | inhibition [10]: 0% | inhibition [11]: 20% | inhibition [12]: 35% | inhibition [13]: 0% | inhibition [14]: 42% | inhibition [15]: 15% | inhibition [16]: 49% | inhibition [17]: 7% | inhibition [18]: 19% | inhibition [19]: 0% | inhibition [20]: 0% | inhibition [21]: 28% | inhibition [22]: 0% | inhibition [23]: 3% | inhibition [24]: 0% | inhibition [25]: 18% | inhibition [26]: 0% | inhibition [27]: 0% | inhibition [28]: 13% | inhibition [29]: 39% | inhibition [30]: 46% | inhibition [31]: 0% | inhibition [32]: 49% | inhibition [33]: 0% | inhibition [34]: 5% | inhibition [35]: 0% | inhibition [36]: 23% | inhibition [37]: 0% | inhibition [38]: 45% | inhibition [39]: 25% | inhibition [2]: inactive | inhibition [40]: 0% | inhibition [41]: 32% | inhibition [42]: 12% | inhibition [43]: 0% | inhibition [44]: 0% | inhibition [45]: 16% | inhibition [46]: 0%

O=C1Nc2ccccc2/C1=C1\C(=O)Nc2ccccc21 [ISOINDIGO]
IC50 [1]: 16.3 µM | IC50 (Huh-7): 28.9 µM | inhibition [2]: inactive | IC50 (HL-60): 16.6 µM | IC50 (HCT-116): > 30 µM | IC50 (K562): 6.7 µM
